Test system: endogenous BMP-2
Test: CRISPR activation of endogenous BMP-2, qPCR in transfected HEK-293T cells
Format: cell-based, human
Conditions: qPCR 24 hours after transfection with constitutively-expressed dCas9-VPR, normalized to HPRT
Experimental: HEK-293T cells were transfected with constitutively-expressed dCas9-VPR (Addgene #63798) and gRNA-expressing plasmids (Addgene #41824, sequences targeting the 150 bp region of the transcription start site of the endogenous BMP-2 was cloned into the vector; gRNA2 seq: […], gRNA3 seq: […], GFP seq:). After 24 hours, BMP-2 induction was measured by qPCR, following manufacturer protocols. Groups of HEK-293T cells tested were: Untransfected (UT), dCas9-VPR (VPR), GFP, gRNA2, and gRNA3. All groups were normalized to Hypoxanthine-guanine phosphoribosyltransferase (HPRT) expression (FIG. 27). Untransfected, dCas9-VPR, gRNA2, and gRNA3 groups were compared to GFP to elucidate increase in expression levels (FIG. 28).

Substance	induction of endogenous BMP-2 expression compared to GFP group
gRNA2: gRNA-expressing plasmid targeting the 150 bp region of the transcription start site of endogenous BMP-2; seq GGCGAGCCGCGCCGCGAAGG (expressed from plasmid)	112 fold
gRNA3: gRNA-expressing plasmid targeting the 150 bp region of the transcription start site of endogenous BMP-2; seq GCTCGCCGGGGATCCCCGAG (expressed from plasmid)	77 fold

Reference: US20210047653A1, “COMPOSITIONS AND METHODS FOR REGULATING A BIOLOGICAL PROCESS” (The University of Memphis Research Foundation, priority 2018, published 2021)
